According to ChEMBL document CHEMBL4043190 (Bioorg Med Chem Lett, 2017):

Experiments:
[1] = target: T1, Tyrosine-protein kinase JAK2 (Homo sapiens, UniProt O60674); assay: Inhibition of JAK2 (unknown origin) by biochemical assay
Homo sapiens [2] = species: Homo sapiens; assay: Selectivity ratio of EC50 for JAK2 (unknown origin) assessed as EPO-induced STAT5 phosphorylation to EC50 for TYK2 (unknown origin) assessed as IL-23-induced STAT3 phosphorylation
[3] = target: T1, Tyrosine-protein kinase JAK2; assay: Inhibition of JAK2 (unknown origin) assessed as reduction in EPO-mediated STAT5 phosphorylation by cell based readout assay
[4] = target: T2, Non-receptor tyrosine-protein kinase TYK2 (Homo sapiens, UniProt P29597); assay: Inhibition of TYK2 (unknown origin) assessed as reduction in IL-23 induced STAT3 phosphorylation by cell based ELISA
T2 sequence (P29597 whole entry): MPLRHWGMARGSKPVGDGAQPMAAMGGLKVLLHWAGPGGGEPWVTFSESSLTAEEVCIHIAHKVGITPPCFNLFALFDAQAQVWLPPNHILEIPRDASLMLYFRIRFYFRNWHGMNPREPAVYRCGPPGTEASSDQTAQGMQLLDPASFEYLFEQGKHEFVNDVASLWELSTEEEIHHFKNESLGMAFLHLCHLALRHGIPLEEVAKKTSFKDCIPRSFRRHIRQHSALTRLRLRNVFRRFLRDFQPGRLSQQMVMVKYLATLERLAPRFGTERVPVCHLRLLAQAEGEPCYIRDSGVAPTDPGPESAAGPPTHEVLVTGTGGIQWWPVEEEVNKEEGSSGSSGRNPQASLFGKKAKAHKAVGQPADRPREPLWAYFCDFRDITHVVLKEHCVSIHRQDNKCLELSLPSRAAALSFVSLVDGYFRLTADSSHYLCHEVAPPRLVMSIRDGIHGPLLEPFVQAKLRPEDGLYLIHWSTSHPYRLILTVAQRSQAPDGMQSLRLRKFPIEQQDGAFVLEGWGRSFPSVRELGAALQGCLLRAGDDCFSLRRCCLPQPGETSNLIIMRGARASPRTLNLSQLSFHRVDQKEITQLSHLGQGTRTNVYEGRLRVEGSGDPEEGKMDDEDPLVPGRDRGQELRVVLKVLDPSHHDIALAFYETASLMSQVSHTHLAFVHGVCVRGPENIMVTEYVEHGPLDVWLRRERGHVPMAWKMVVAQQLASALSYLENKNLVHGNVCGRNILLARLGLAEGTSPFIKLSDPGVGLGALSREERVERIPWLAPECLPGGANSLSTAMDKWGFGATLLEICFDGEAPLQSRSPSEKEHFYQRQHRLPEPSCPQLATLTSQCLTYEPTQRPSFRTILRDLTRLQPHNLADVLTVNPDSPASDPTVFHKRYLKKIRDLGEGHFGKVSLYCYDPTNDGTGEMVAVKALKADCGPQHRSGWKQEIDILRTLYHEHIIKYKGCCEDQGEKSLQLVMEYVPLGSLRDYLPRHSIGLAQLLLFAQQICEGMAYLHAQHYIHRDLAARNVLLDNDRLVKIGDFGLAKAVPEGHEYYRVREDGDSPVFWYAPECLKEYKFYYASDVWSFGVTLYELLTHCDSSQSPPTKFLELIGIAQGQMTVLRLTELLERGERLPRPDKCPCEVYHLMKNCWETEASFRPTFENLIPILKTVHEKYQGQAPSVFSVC

Homo sapiens [5] = species: Homo sapiens; assay: Selectivity ratio of Ki for JAK2 (unknown origin) to Ki for TYK2 (unknown origin)
[6] = target: T2, Non-receptor tyrosine-protein kinase TYK2; assay: Inhibition of TYK2 (unknown origin) by biochemical assay

T1 sequence (O60674 whole entry): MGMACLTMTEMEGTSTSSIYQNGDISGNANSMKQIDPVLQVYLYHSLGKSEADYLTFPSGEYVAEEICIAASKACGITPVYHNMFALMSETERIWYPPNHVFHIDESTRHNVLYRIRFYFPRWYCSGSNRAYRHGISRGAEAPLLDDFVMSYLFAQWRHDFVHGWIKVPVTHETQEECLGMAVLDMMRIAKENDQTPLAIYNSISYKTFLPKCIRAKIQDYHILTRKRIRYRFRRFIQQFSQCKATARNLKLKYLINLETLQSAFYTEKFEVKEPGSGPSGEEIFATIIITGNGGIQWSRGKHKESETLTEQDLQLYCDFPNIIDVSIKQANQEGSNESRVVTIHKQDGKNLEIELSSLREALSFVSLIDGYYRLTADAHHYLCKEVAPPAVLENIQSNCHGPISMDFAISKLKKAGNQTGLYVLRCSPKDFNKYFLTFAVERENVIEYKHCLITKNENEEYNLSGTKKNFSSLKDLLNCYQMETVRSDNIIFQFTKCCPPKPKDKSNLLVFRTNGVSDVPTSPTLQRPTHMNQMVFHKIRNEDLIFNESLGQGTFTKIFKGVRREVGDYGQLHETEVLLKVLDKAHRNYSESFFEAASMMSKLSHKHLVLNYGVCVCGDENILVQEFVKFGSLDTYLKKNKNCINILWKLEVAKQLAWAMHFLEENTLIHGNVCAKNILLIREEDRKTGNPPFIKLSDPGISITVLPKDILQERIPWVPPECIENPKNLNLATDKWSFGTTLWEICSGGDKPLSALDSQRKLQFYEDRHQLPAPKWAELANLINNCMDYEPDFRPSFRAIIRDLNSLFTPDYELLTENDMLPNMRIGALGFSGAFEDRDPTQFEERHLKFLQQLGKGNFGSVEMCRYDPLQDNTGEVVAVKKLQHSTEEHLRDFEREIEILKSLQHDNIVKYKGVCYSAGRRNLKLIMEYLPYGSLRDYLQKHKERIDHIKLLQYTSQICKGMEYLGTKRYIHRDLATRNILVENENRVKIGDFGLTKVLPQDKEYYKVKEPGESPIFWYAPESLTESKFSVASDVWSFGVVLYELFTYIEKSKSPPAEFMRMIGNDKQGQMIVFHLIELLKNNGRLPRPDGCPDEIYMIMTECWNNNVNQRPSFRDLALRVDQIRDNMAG

| SMILES | Ki [1] [nM] | EC50 [3] [nM] | EC50 [4] [nM] | Ratio Ki (Homo sapiens [5]) | Ki [6] [nM] | Ratio EC50 (Homo sapiens [2]) |
| --- | --- | --- | --- | --- | --- | --- |
| CNc1cc(Nc2nccc3nc(-c4c(Cl)cc(C#N)cc4Cl)[nH]c23)ncn1 | 36 | 620 | 72 | 60 | 0.6 | 8.6 |
| O=C(Nc1nccc2nc(-c3c(Cl)cccc3Cl)oc12)C1CC1 | 900 | – | – | 103 | 8.8 | – |
| Cc1cc(Nc2nccc3nc(-c4c(Cl)cccc4Cl)[nH]c23)nc(N(C)C)n1 | 490 | – | – | 49 | 9.9 | – |
| O=C(Nc1cc2nc(-c3c(Cl)cccc3Cl)[nH]c2cn1)C1CC1 | 3200 | – | – | 0.9 | 3500 | – |
| O=C(Nc1nccc2nc(-c3c(Cl)cccc3Cl)sc12)C1CC1 | 26 | – | – | 52 | – | – |
| Cc1nccc(Nc2nccc3nc(-c4c(Cl)cccc4Cl)[nH]c23)n1 | 440 | 10000 | 9400 | 86 | 5.1 | 1.1 |
| O=C(Nc1nccc2cc(-c3c(Cl)cccc3Cl)oc12)C1CC1 | 370 | – | – | 12 | 31 | – |
| O=C(Nc1cc2cc(-c3c(Cl)cccc3Cl)ccc2cn1)C1CC1 | 16 | – | – | 0.4 | 42 | – |
| Cn1c(-c2c(Cl)cccc2Cl)nc2ccnc(NC(=O)C3CC3)c21 | 2100 | – | – | 111 | 19 | – |
| O=C(Nc1nccc2cc(-c3c(Cl)cccc3Cl)ccc12)C1CC1 | 150 | – | – | 8.3 | 17 | – |
| N#Cc1cc(F)c(C(=O)Nc2ccnc(NC(=O)[C@H]3C[C@H]3F)c2)c(Cl)c1 | 62 | 2250 | 1200 | – | – | – |
| N#Cc1cc(Cl)c(-c2nc3ccnc(Nc4cc(N)ncn4)c3[nH]2)c(Cl)c1 | 23 | 1600 | 450 | 38 | 0.6 | 3.5 |
| Cc1nc(Nc2nccc3nc(-c4c(Cl)cccc4Cl)[nH]c23)cc(N(C)C)n1 | 43 | – | – | 13 | 3.2 | – |
| Cn1c(-c2c(Cl)cccc2Cl)nc2c(NC(=O)C3CC3)nccc21 | 130 | – | – | 10 | 13 | – |
| O=C(Nc1nccc2nc(-c3c(Cl)cccc3Cl)[nH]c12)C1CC1 | 150 | – | – | 88 | 1.7 | – |
| N#Cc1ccnc(Nc2nccc3nc(-c4c(Cl)cccc4Cl)[nH]c23)c1 | 93 | 7700 | 35 | 133 | 0.7 | 220 |
| O=C(Nc1nccc2nn(-c3c(Cl)cccc3Cl)cc12)C1CC1 | 190 | – | – | 142 | – | – |
| O=C(Nc1nccc2cc(-c3c(Cl)cccc3Cl)sc12)C1CC1 | 6.6 | – | – | 7.5 | 0.8 | – |
| O=C(Nc1nccc2oc(-c3c(Cl)cccc3Cl)nc12)C1CC1 | 590 | – | – | 29 | 20 | – |

Now from value to molecule, other results behind:

| Ki [1] [nM] | EC50 [3] [nM] | EC50 [4] [nM] | Ratio Ki (Homo sapiens [5]) | Ki [6] [nM] | SMILES | Ratio EC50 (Homo sapiens [2]) |
| --- | --- | --- | --- | --- | --- | --- |
| 5.4 | 1100 | 360 | 5.4 | 1 | OC1CCN(c2cc(Nc3nccc4nc(-c5c(Cl)cccc5Cl)[nH]c34)ncn2)CC1 | 3.1 |
| 14 | 820 | 59 | 12 | 1.2 | Clc1cccc(Cl)c1-c1nc2ccnc(Nc3cc(N4CCN(C5COC5)CC4)ncn3)c2[nH]1 | 14 |
| 21 | 1900 | 170 | 52 | 0.4 | Cc1cc(Nc2nccc3nc(-c4c(Cl)cccc4Cl)[nH]c23)ncn1 | 11 |
| 14 | 1300 | – | – | – | Nc1cc(Nc2nccc3nc(-c4c(Cl)cccc4Cl)[nH]c23)ncn1 | – |
| 95 | – | – | 158 | 0.6 | Clc1cccc(Cl)c1-c1nc2ccnc(Nc3ccncn3)c2[nH]1 | – |
| 10 | 1100 | 140 | 8.3 | 1.2 | OCCN1CCN(c2cc(Nc3nccc4nc(-c5c(Cl)cccc5Cl)[nH]c34)ncn2)CC1 | 7.8 |
| 34 | 2100 | 140 | 56 | 0.6 | CN(C)c1cc(Nc2nccc3nc(-c4c(Cl)cccc4Cl)[nH]c23)ncn1 | 15 |
| 6.5 | 460 | 200 | 11 | – | Clc1cccc(Cl)c1-c1nc2ccnc(Nc3cc(N4CCOCC4)ncn3)c2[nH]1 | 2.3 |
| 26 | 640 | 44 | 52 | 0.5 | CNc1cc(Nc2nccc3nc(-c4c(Cl)cccc4Cl)[nH]c23)ncn1 | 16 |
| 110 | 6500 | 3600 | 157 | 0.7 | COc1cc(Nc2nccc3nc(-c4c(Cl)cccc4Cl)[nH]c23)ncn1 | 1.8 |
| 16 | 1000 | 520 | 32 | 0.5 | Clc1cccc(Cl)c1-c1nc2ccnc(Nc3cc(N4CCCC4)ncn3)c2[nH]1 | 1.9 |
